# Biological target: Acetylcholinesterase (Electrophorus electricus, UniProt O42275)
# Assay: Inhibition of electric eel AChE by Ellman's method
# Chain of Acetylcholinesterase (O42275 whole entry): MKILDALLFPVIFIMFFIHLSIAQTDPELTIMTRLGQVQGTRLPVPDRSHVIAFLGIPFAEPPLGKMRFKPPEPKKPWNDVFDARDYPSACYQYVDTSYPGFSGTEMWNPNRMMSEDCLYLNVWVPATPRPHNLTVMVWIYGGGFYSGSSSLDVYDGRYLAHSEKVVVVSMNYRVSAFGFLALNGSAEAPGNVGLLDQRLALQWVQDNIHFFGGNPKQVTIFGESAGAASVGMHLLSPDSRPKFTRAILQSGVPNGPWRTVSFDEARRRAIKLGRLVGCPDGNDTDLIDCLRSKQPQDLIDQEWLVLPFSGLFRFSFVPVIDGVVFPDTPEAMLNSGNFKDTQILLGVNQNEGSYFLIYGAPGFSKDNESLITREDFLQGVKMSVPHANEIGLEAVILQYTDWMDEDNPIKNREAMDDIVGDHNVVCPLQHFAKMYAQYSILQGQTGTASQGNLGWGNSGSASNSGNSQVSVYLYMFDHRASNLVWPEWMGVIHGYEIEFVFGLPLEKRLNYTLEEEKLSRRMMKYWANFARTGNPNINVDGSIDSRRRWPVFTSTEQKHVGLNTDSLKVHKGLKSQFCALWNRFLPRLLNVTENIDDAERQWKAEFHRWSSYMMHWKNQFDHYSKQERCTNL
structure (smiles),measurement,value
O=CN1CC[C@]23CC(=O)CC[C@H]2[C@H]1Cc1c(O)ccc(O)c13,IC50,12.7 µM

# Reference: BindingDB's records for doi:10.1016/j.bmc.2010.05.071 (University of Innsbruck and Center For Molecular …, 2010)
